According to patent US20230248626A1, “Compositions Comprising (Bio)-Alkanediols” (Symrise AG, priority 0001, published 2023):
One block for each compound: values may come before it.

Tests used:
[1] = Sensory evaluation on the backside of the hand (spreading, fatty/greasy skin feel, absorption), untrained panellists; conditions: for Absorption/remaining residue with alkanediol: scale 1 to 5
Protocol: For evaluating the sensory behaviour, liquid lipophilic components specified in the following table were blended with 1,2-heptanediol or 2,3-heptanediol or a mixture of 1,2-heptanediol and 2,3-heptanediol or 1,2-octanediol or 2,3-octanediol or a mixture of 1,2-octanediol and 2,3-octanediol (formulation) in a ratio of 85:15 and assessed by untrained panellists in comparison to the liquid lipophilic component without addition of the specified alkanediols (placebo).
The test procedure was carried as follows: For evaluating the sensory behaviour of 1,2-alkanediols and/or 2,3-alkanediols in combination with different liquid lipophilic components, oil components specified in the following table were blended with a 1,2-alkanediol or a 2,3-alkanediol or a mixture including a 1,2-alkanediol and a 2,3-alkanediol in a ratio as specified in Table 53 and assessed by untrained panellists in comparison to the liquid lipophilic component without addition of the 1,2-alkanediol or 2,3-alkanediol or the mixture including a 1,2-alkanediol and 2,3-alkanediol (placebo).
Test Procedure: • Hands were pre-washed with liquid soap by following a defined procedure; 30 μl of corresponding sample was applied on the backside of each hand (randomized); • After 30 s the spreading behaviour of the respective formulation on skin was evaluated versus the respective oil component without 1,2-heptanediol on a scale from 1 to 5 (1=low spreading; 5=high spreading); • The samples were distributed with the fingertips of middle and forefinger with 2×5 cycles; • After 2 minutes, the fatty/greasy skin feel was evaluated on a scale from 1 to 5 (1=low fatty/greasy skin feel; 5=high fatty/greasy skin feel); • Furthermore the applicants were asked to assess the absorption, i.e. the impression of amount of remaining residue on the skin on a scale from 1 to 5 (1=low absorption; 5=high absorption).

[2] = test system: reactive oxygen species (ROS) on ex vivo skin; assay: DCF assay, ROS score on ex vivo skin, aqueous/alcoholic (ethanolic) test system; type: cell-based; conditions: vehicle (EtOH/H2O) plus alkanediol only
Protocol: A dichlorofluorescein test (DCF) assay was performed in order to determine the amount of reactive oxygen species (ROS) on ex vivo skin treated with different test samples in a lipophilic or an aqueous/alcoholic system as described below.
DCF assay—assay principle: Ex vivo skin was incubated with 2′,7′-dichlorodihydrofluorescein diacetate at 37° C., 5% CO2. After PBS washing, samples were exposed or not to cumene hydroperoxide. Immediately after exposure, ex vivo skin samples were frozen in liquid nitrogen and 5 μm cryostat sections were made and fixed with acetone to allow the visualisation of fluorescence generated by ROS in cells of the reconstructed skins. The resulting fluorescence was measured at EX/EM 504/524 nm. Green fluorescence was quantified in ex vivo skin using ImageJ software. The depth of immunostaining was measured as follows: green DCFH-DE positive cells were automatically detected using Histolab software and the distance between dermal epidermal junction and the deepest positive cells were measured in each condition. Means were compared using a student's test. […]
The image acquisition was performed by using Olympus BX51 microscope and Olympus DP70 camera. For each skin sample two skin sections have been taken and the related fluorescent images acquired and analyzed. Thus, for each test condition, 12 images have been acquired and analyzed (i.e. 12 data). […]

human sebaceous glands = assay: Sebum production of micro-dissected, cultured human sebaceous glands (lipids/proteins after six days); type: cell-based; parameters: sebum reduction: concentration or dose not given beside the values; conditions: compared to untreated control; six days; single donor (FIG. 4)
Protocol: Additional tests were performed with human sebaceous glands in order to verify the modulatory activity of different 1,2-alkanediols and 2,3-alkanediols on sebum secretion. Several microbial species on the skin are lipid dependent and feed on the human sebum (e.g. Corynebacterium, Propionibacterium). Accordingly, sebum reduction can indirectly support the reduction of microorganisms on the skin and in this way also indirectly support e.g. dandruff or acne reduction.
For these experiments sebaceous glands had been micro-dissected and cultured with medium. The medium without any supplement served as untreated control. Medium with 5 μM Capsaicin served as positive control. Additionally, culture medium was supplemented with different concentrations of alkanediols. After six days the sebaceous glands were collected and lipids and proteins quantified. The total lipid amount being representative of sebum production was obtained by normalizing the quantified lipids upon the quantified proteins (i.e. mg of lipids/mg of proteins).

[3] = blend with Argan Oil vs without
[4] = blend with Avocado Oil vs without
[5] = blend with Cacao butter vs without
[6] = blend with Castor Oil vs without
[7] = blend with Coconut Oil vs without
[8] = blend with Grapeseed Oil vs without
[9] = blend with Helianthus Annuus (Sunflower) Seed Oil vs without
[10] = blend with Helianthus Annuus (Sunflower) Seed Oil
[11] = blend with Octocrylene (Neo Heliopan 303), vs without
[12] = blend with Octocrylene (Neo Heliopan 303)
[13] = blend with Olive Oil vs without
[14] = blend with Caprylic Capric Triglyceride (neutral oil), rows r50-r56, vs without
[15] = blend with Caprylic Capric Triglyceride (neutral oil), rows r50-r56
[16] = blend with Cetearyl Nonanoate, rows r199-r201, vs without
[17] = blend with Cetearyl Nonanoate, rows r199-r201

- Absorption/remaining residue Delta [1, 3]: 1.6
- Absorption/remaining residue with alkanediol ([1]; blend with Argan Oil): 2.2
- Absorption/remaining residue Delta [1, 4]: 1.4
- Absorption/remaining residue with alkanediol ([1]; blend with Avocado Oil): 2.4
- Absorption/remaining residue Delta [1, 5]: 0.8
- Absorption/remaining residue with alkanediol ([1]; blend with Cacao butter): 2.8
- Absorption/remaining residue Delta [1, 6]: 1.4
- Absorption/remaining residue with alkanediol ([1]; blend with Castor Oil): 3
- Absorption/remaining residue Delta [1, 7]: 1.2
- Absorption/remaining residue with alkanediol ([1]; blend with Coconut Oil): 2.6
- Absorption/remaining residue Delta [1, 8]: 0.2
- Absorption/remaining residue with alkanediol ([1]; blend with Grapeseed Oil): 2.4
- Absorption/remaining residue Delta [1, 9]: 0.4
- Absorption/remaining residue with alkanediol [1, 10]: 3.4
- Absorption/remaining residue Delta [1, 11]: 1.5
- Absorption/remaining residue with alkanediol [1, 12]: 2.5
- Absorption/remaining residue Delta [1, 13]: 1.4
- Absorption/remaining residue with alkanediol ([1]; blend with Olive Oil): 2.6
Compound: CCCCCC(O)C(C)O (centres unmarked) [2,3-octanediol]

- Absorption/remaining residue Delta [1, 3]: 1.4
- Absorption/remaining residue with alkanediol ([1]; blend with Argan Oil): 2.4
- Absorption/remaining residue Delta [1, 4]: 1.4
- Absorption/remaining residue with alkanediol ([1]; blend with Avocado Oil): 2.4
- Absorption/remaining residue Delta [1, 5]: 0.4
- Absorption/remaining residue with alkanediol ([1]; blend with Cacao butter): 3.2
- Absorption/remaining residue Delta [1, 14]: 0.3
- Absorption/remaining residue with alkanediol [1, 15]: 3
- Absorption/remaining residue Delta [1, 6]: 0.6
- Absorption/remaining residue with alkanediol ([1]; blend with Castor Oil): 3.8
- Absorption/remaining residue Delta [1, 16]: 1.0
- Absorption/remaining residue with alkanediol [1, 17]: 3.8
- Absorption/remaining residue Delta [1, 7]: 1
- Absorption/remaining residue with alkanediol ([1]; blend with Coconut Oil): 2.4
- Absorption/remaining residue Delta [1, 8]: 0.8
- Absorption/remaining residue with alkanediol ([1]; blend with Grapeseed Oil): 2.2
- Absorption/remaining residue Delta [1, 9]: 1
- Absorption/remaining residue with alkanediol [1, 10]: 2.6
- Absorption/remaining residue Delta [1, 11]: 0.5
- Absorption/remaining residue with alkanediol [1, 12]: 3.5
- Absorption/remaining residue Delta [1, 13]: 2
- Absorption/remaining residue with alkanediol ([1]; blend with Olive Oil): 2
Compound: CCCCC(O)C(C)O (centres unmarked) [2,3-heptanediol]
- antioxidative efficacy without antioxidant (in words) [2]: do not have an antioxidative efficacy
- sebum reduction (human sebaceous glands): 30%

- Absorption/remaining residue Delta [1, 3]: 1
- Absorption/remaining residue with alkanediol ([1]; blend with Argan Oil): 2.8
- Absorption/remaining residue Delta [1, 4]: 1.2
- Absorption/remaining residue with alkanediol ([1]; blend with Avocado Oil): 2.6
- Absorption/remaining residue Delta ([1]; blend with Butyrospermum Parkii (Shea) Butter vs without): 1.5
- Absorption/remaining residue with alkanediol ([1]; blend with Butyrospermum Parkii (Shea) Butter): 2.7
- Absorption/remaining residue Delta [1, 5]: 0
- Absorption/remaining residue with alkanediol ([1]; blend with Cacao butter): 3.6
- Absorption/remaining residue Delta [1, 14]: 0.6
- Absorption/remaining residue with alkanediol [1, 15]: 2.7
- Absorption/remaining residue Delta [1, 6]: 0.4
- Absorption/remaining residue with alkanediol ([1]; blend with Castor Oil): 4
- Absorption/remaining residue Delta ([1]; blend with Cetearyl Nonanoate (SymMollient S), row r161, vs without): 1.2
- Absorption/remaining residue with alkanediol ([1]; blend with Cetearyl Nonanoate (SymMollient S), row r161): 2
- Absorption/remaining residue Delta [1, 16]: 1.6
- Absorption/remaining residue with alkanediol [1, 17]: 3.2
- Absorption/remaining residue Delta ([1]; blend with Chlorella oil (biotech) vs without): 0.2
- Absorption/remaining residue with alkanediol ([1]; blend with Chlorella oil (biotech)): 3
- Absorption/remaining residue Delta [1, 7]: 1.4
- Absorption/remaining residue with alkanediol ([1]; blend with Coconut Oil): 2
- Absorption/remaining residue Delta ([1]; blend with Ethylhexyl Methoxycinnamate (Neo Heliopan AV) vs without): 0.5
- Absorption/remaining residue with alkanediol ([1]; blend with Ethylhexyl Methoxycinnamate (Neo Heliopan AV)): 3
- Absorption/remaining residue Delta ([1]; blend with Ethylhexyl Salicylate (Neo Heliopan OS) vs without): 1.3
- Absorption/remaining residue with alkanediol ([1]; blend with Ethylhexyl Salicylate (Neo Heliopan OS)): 2.2
- Absorption/remaining residue Delta [1, 8]: 0.2
- Absorption/remaining residue with alkanediol ([1]; blend with Grapeseed Oil): 2.8
- Absorption/remaining residue Delta [1, 9]: 1.3
- Absorption/remaining residue with alkanediol [1, 10]: 2
- Absorption/remaining residue Delta ([1]; blend with Hexyldecanol (Eutanol G) vs without): 0.2
- Absorption/remaining residue with alkanediol ([1]; blend with Hexyldecanol (Eutanol G)): 2.7
- Absorption/remaining residue Delta ([1]; blend with Homosalate (Neo Heliopan HMS) vs without): 0.3
- Absorption/remaining residue with alkanediol ([1]; blend with Homosalate (Neo Heliopan HMS)): 2.5
- Absorption/remaining residue Delta ([1]; blend with Isoamyl p-Methoxycinnamate (Neo Heliopan E 1000) vs without): 1.7
- Absorption/remaining residue with alkanediol ([1]; blend with Isoamyl p-Methoxycinnamate (Neo Heliopan E 1000)): 2.5
- Absorption/remaining residue Delta ([1]; blend with Microalgae oil vs without): 1.2
- Absorption/remaining residue with alkanediol ([1]; blend with Microalgae oil): 2.5
- Absorption/remaining residue Delta ([1]; blend with Octocrylene (Neo Heliopan 303), row r184 (UV filter), vs without): 1.3
- Absorption/remaining residue with alkanediol ([1]; blend with Octocrylene (Neo Heliopan 303), row r184 (UV filter)): 2.7
- Absorption/remaining residue Delta [1, 11]: 0.5
- Absorption/remaining residue with alkanediol [1, 12]: 3.5
- Absorption/remaining residue Delta [1, 13]: 1.6
- Absorption/remaining residue with alkanediol ([1]; blend with Olive Oil): 2.4
- Absorption/remaining residue Delta ([1]; blend with Propanediol Dicaprylate/Dicaprate (Symollient PDCC) vs without): 0.1
- Absorption/remaining residue with alkanediol ([1]; blend with Propanediol Dicaprylate/Dicaprate (Symollient PDCC)): 2.4
- Absorption/remaining residue Delta ([1]; blend with Prunus Amygdalus Dulcis (Sweet Almond) Oil vs without): 1.5
- Absorption/remaining residue with alkanediol ([1]; blend with Prunus Amygdalus Dulcis (Sweet Almond) Oil): 2.2
- Absorption/remaining residue Delta ([1]; blend with Simmondsia Chinensis (Jojoba) Seed Oil vs without): 1.2
- Absorption/remaining residue with alkanediol ([1]; blend with Simmondsia Chinensis (Jojoba) Seed Oil): 2.5
Compound: CCCCCC(O)CO (centres unmarked) [1,2-heptanediol]
- antioxidative efficacy without antioxidant (in words) [2]: do not have an antioxidative efficacy
- sebum reduction (human sebaceous glands): 22%
